The target of one assay is T1, tankyrase 1 (TNKS 1) (Homo sapiens, UniProt O95271).
T1 construct: 1,024-1,327aa; made in house; host or cells: cell-free protein synthesis system
As to the kind of experiment: Tankyrase inhibitory activity test (ELISA, self-polyADP ribosylation), tankyrase 1. Type of assay: biochemical. Conditions: ELISA, self-polyADP ribosylation; class symbols; read-out: TNKS1 (inhibitory activity against tankyrase 1, IC50 value). In outline: (§1)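 Flag-tagged TNKS1 (1,024-1,327aa, SAM+PARP) and TNKS2 (613-1,116aa, ANK5+SAM+PARP) were made cell-free and captured overnight at 4 °C on anti-FLAG M2 plates. After 10 min compound preincubation in Tris pH 8.0/MgCl2/DTT buffer, NAD (225 μM) plus biotin-NAD (25 μM) solution was added for 45 min at 30 °C. Auto-PARylation was read by streptavidin-HRP chemiluminescence, giving IC50 from residual activity.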
In general terms: ELISA stands for enzyme-linked immunosorbent assay.

Another assay addresses T2, tankyrase 2 (TNKS 2) (Homo sapiens, UniProt Q9H2K2).
T2 construct: 613-1, 116aa; made in house; host or cells: cell-free protein synthesis system
As to the kind of experiment: Tankyrase inhibitory activity test (ELISA, self-polyADP ribosylation), tankyrase 2. Format: biochemical. Conditions: ELISA, self-polyADP ribosylation; class symbols; read-out: TNKS2 (inhibitory activity against tankyrase 2, IC50 value). In outline:
as §1

The test system of assay [1] is human colorectal cancer cell line, COLO-320DM. The assay can be described thus: Cell proliferation inhibitory activity test (Celltiter-Glo Luminescent Cell Viability Assay). The conditions noted are these: COLO-320DM cells, 96 hours, class symbols, read-out: COLO-320 DM (cell proliferation inhibitory activity, GI50 value). Format: cell-based. The method, boiled down: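 Cells grown in RPMI-1640 with 10% FBS and 2 mM glutamine, seeded overnight, then exposed to compound (1% DMSO final) for 96 h at 37° C., 5% CO2. Viability read by ATP luminescence; GI50 is the concentration reducing cell growth to 50% of DMSO control.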
In general terms: In ATP-based viability assays light output follows the ATP content of the culture.

T1 sequence (O95271 1024-1327): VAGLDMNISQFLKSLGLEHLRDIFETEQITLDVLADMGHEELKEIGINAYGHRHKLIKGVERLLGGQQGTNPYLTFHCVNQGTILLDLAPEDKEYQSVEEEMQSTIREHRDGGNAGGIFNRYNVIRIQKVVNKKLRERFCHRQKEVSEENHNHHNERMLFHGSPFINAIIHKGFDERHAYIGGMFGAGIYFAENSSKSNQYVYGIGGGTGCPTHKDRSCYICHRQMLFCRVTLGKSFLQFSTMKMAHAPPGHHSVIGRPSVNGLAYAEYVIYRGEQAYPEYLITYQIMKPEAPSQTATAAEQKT
T2 sequence (Q9H2K2 613-1166): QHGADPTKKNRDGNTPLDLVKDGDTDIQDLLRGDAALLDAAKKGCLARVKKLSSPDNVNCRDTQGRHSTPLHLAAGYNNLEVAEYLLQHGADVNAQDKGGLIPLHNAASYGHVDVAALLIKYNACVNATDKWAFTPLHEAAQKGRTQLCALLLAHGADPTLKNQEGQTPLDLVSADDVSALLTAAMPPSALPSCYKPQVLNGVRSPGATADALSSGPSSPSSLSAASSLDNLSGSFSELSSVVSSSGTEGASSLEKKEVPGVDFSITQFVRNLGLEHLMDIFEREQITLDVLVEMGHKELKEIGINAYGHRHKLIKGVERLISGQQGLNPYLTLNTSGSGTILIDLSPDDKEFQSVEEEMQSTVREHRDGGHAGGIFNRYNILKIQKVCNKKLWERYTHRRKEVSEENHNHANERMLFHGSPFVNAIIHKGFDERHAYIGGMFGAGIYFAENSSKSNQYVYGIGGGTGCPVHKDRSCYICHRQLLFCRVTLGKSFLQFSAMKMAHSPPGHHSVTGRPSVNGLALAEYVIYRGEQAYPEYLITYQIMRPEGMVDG

As to `COC(=O)N1CCN(c2cc(F)c3c(c2)N(C)C(=O)C32CCN(c3nc4c(c(=O)[nH]3)CCCN4C)CC2)CC1` [Example 462, methyl 4-[4-fluoro-1-methyl-1′-(8-methyl-4-oxo-3,4,5,6,7,8-hexahydropyrido[2,3-d]pyrimidin-2-yl)-2-oxospiro[indole-3,4′-piperidine]-6-yl]piperazine-1-carboxylate], the IC50 – broadly, the concentration needed to halve the response being measured – at tankyrase 1 (TNKS 1) is 20 to 200 nM; at tankyrase 2 (TNKS 2) it was below 20 nM. Moreover, in assay [1], the GI50 is below 100 nM.

Take `C[C@@H]1CN(c2cc(F)c3c(c2)N(C)C(=O)C32CCN(c3nc4c(c(=O)[nH]3)CCCN4C)CC2)C[C@H](C)O1` [Example 463, 6-[cis-2,6-dimethylmorpholin-4-yl]-4-fluoro-1′-(8-methyl-4-oxo-3,4,5,6,7,8-hexahydropyrido[2,3-d]pyrimidin-2-yl)-1-methyl-spiro[indole-3,4′-piperidine]-2(1H)-one]: the IC50 on tankyrase 1 (TNKS 1) and at tankyrase 2 (TNKS 2) was below 20 nM each time. Also, the GI50 in assay [1] is below 100 nM.

For `CN1CCCc2c1nc(N1CCC3(CC1)C(=O)N(C)c1cc(N4CCC(S(C)(=O)=O)CC4)cc(F)c13)[nH]c2=O` [Example 464, 4-fluoro-1-methyl-1′-(8-methyl-4-oxo-3,4,5,6,7,8-hexahydropyrido[2,3-d]pyrimidin-2-yl)l-6-(4-methylsulfonylpiperidin-1-yl)spiro[indole-3,4′-piperidine]-2(1H)-one], the IC50 on tankyrase 1 (TNKS 1) and at tankyrase 2 (TNKS 2) was below 20 nM in each case. Also, in assay [1], the GI50 lay in the range of 100 to 600 nM.

Turning to `COC1CCN(c2cc(F)c3c(c2)N(C)C(=O)C32CCN(c3nc4c(c(=O)[nH]3)CCCN4C)CC2)CC1` [Example 465, 4-fluoro-6-(4-methoxypiperidin-1-yl)-1-methyl-1′-(8-methyl-4-oxo-3,4,5,6,7,8-hexahydropyrido[2,3-d]pyrimidin-2-yl)spiro[indole-3,4′-piperidine]-2(1H)-one], the IC50 was 20 to 200 nM at tankyrase 1 (TNKS 1) and below 20 nM on tankyrase 2 (TNKS 2). The GI50 in assay [1] was below 100 nM.

Turning to `CN1CCCc2c1nc(N1CCC3(CC1)C(=O)N(C)c1cc(N4CCN(C(N)=O)CC4)cc(F)c13)[nH]c2=O` [Example 466, 4-[4-fluoro-1-methyl-1′-(8-methyl-4-oxo-3,4,5,6,7,8-hexahydropyrido[2,3-d]pyrimidin-2-yl)-2-oxospiro[indole-3,4′-piperidine]-6-yl]piperazine-1-carboxamide], the figures for the IC50 on tankyrase 1 (TNKS 1) and on tankyrase 2 (TNKS 2) were 20 to 200 nM and below 20 nM, respectively. Besides, the GI50 in assay [1] lay in the range of 600 to 1000 nM.

For `CN1CCCc2c1nc(N1CCC3(CC1)C(=O)N(C)c1cc(N4CCC(C#N)CC4)cc(F)c13)[nH]c2=O` [Example 467, 1-[4-fluoro-1-methyl-1′-(8-methyl-4-oxo-3,4,5,6,7,8-hexahydropyrido[2,3-]pyrimidin-2-yl)-2-oxospiro[indole-3,4′-piperidine]-6-yl]piperidine-4-carbonitrile], the IC50 was 20 to 200 nM on tankyrase 1 (TNKS 1) and below 20 nM at tankyrase 2 (TNKS 2). In assay [1], the GI50 is below 100 nM.

For the compound `O=C1N(CC2CCCO2)c2cccc(F)c2C12CCN(c1nc3c(c(=O)[nH]1)CCCN3)CC2` (stereo not drawn) [Example 469, 4-fluoro-1′-(4-hydroxy-5,6,7,8-tetrahydroypyrido[2,3-d]pyrimidin-2-yl)-1-(oxolan-2-ylmethyl)spiro[indole-3,4′-piperidine]-2-one], the results for the IC50 at tankyrase 1 (TNKS 1) and on tankyrase 2 (TNKS 2) were 20 to 200 nM and below 20 nM, respectively. Also, the GI50 in assay [1] lay in the range of 100 to 600 nM.

With `COCCN1C(=O)C2(CCN(c3nc4c(c(=O)[nH]3)CCCN4)CC2)c2c(F)cccc21` [Example 470, 4-fluoro-1′-(4-hydroxy-5,6,7,8-tetrahydroxypyrido[2,3-d]pyrimidin-2-yl)-1-(2-methoxyethyl)spiro[indole-3,4′-piperidin]-2-one], the IC50 at tankyrase 1 (TNKS 1) and at tankyrase 2 (TNKS 2) was below 20 nM throughout. In addition, in assay [1], the GI50 lay in the range of 100 to 600 nM.

Regarding `O=C1OC2(CCN(c3nc4c(c(=O)[nH]3)CCCN4)CC2)c2c(F)cc(N3CCOCC3)cc21` [Example 471, 7-fluoro-1′-(4-hydroxy-6,7-dihydro-5H-pyrido[2,3-d]pyrimidin-2-yl)-6-morpholino-4-ylspiro[2-benzofuran-3,4′-piperidin]-1-one], the IC50 at tankyrase 1 (TNKS 1) and at tankyrase 2 (TNKS 2) was below 20 nM each time. Moreover, the GI50 in assay [1] fell in the range of 600 to 1000 nM.

In the case of `CC1CN(c2cc(F)c3c(c2)C(=O)OC32CCN(c3nc4c(c(=O)[nH]3)CCCN4)CC2)CC(C)O1` (stereo not drawn) [Example 472, 6-(2,6-dimethylmorpholin-4-yl)-4-fluoro-1′-(4-hydroxy-5,6,7,8-tetrahydropyrido[2,3-d]pyrimidin-2-yl) spiro[2-benzofuran-3,4′-piperidin]-1-one], the IC50 at tankyrase 1 (TNKS 1) and on tankyrase 2 (TNKS 2) was below 20 nM in each case. Besides, the GI50 in assay [1] is 600 to 1000 nM.

With `COc1ccc(F)c2c1N(CC(C)(C)O)CC21CCN(c2nc3c(c(=O)[nH]2)CCCN3)CC1` [Example 473, 2-(4-fluoro-1-(2-hydroxy-2-methylpropyl)-7-methoxyspiro[indoline-3,4′-piperidin]-1′-yl)-5,6,7,8-tetrahydropyeido[2,3-d]pyrimidin-4(3H)-one], the IC50 on tankyrase 1 (TNKS 1) is 20 to 200 nM; at tankyrase 2 (TNKS 2), below 20 nM. Further, the GI50 in assay [1] lay within 600 to 1000 nM.

Consider `COc1ccc(F)c2c1NCC21CCN(c2nc3c(c(=O)[nH]2)CCCN3)CC1` [Example 474, 2-(4-fluoro-7-methoxyspiro[indoline-3,4′-piperidin]-1′-yl)-5,6,7,8-tetrahydropyrido[2,3-d]pyrimidin-4(3H)-one], for which the IC50 at tankyrase 1 (TNKS 1) and at tankyrase 2 (TNKS 2) was below 20 nM each time. The GI50 in assay [1] was 100 to 600 nM.

These data come from patent US11414429B2, “Compound or pharmaceutically acceptable salt thereof” (RIKEN, priority 2016, dated 2022).
